Experimental data as given in US20150132747A1, “Treatment of Neurodegeneration and Neuroinflammation” (BIOGEN IDEC MA INC., priority 2009, published 2015).
Where a name gives a salt, the structure may show the parent alone.

Assays:
rat spinal cords (EAE) = experiment: Histology and morphometry of lumbar spinal cord sections of EAE rats (GFAP, IBA-1, Luxol Fast Blue); assay type: in vivo
Description: Lumbar spinal cord sections were prepared as FFPE sections for immunohistochemistry and processed on DAKO autostainer using GFAP antibody (DAKO), IBA-1 (Wako), CD3 (DAKO). Aperio Spectrum Color Deconvolution software was used for morphometric analysis. […] Panels (a) and (b) are from a rat treated with vehicle alone at 5× and 20× magnification, respectively, while panels (c) and (d) are from a rat treated with 100 mg/kg DMF, shown at 5× and 20× magnification, respectively. […] Morphometry analysis of EAE spinal cords was performed with Aperio software. Histological alterations were quantified with Aperio Image Scope software v10.1. The Color Deconvolution algorithm was used to select intensity thresholds either for brown DAB staining (GFAP and IBA-1 Immunostains) or for bright turquoise blue staining (Luxol Fast Blue). Positive staining was determined by the percent of strong positive stained pixels for each intensity threshold. Three lumbar spinal cord sections were quantitated per rat and the values for percent strong positive pixels were averaged for the final intensity value.

Nrf2 [1] = experiment: Nrf2 Western blotting, primary rat astrocytes; assay type: cell-based; conditions: total cell lysates, GAPDH control, FIG. 9
Description: (§1) Total cell lysates were prepared from the astrocyte cultures treated as indicated above. Nrf2 was detected by Western blotting. GAPDH was included as a housekeeping protein control.

Nrf2 [2] = experiment: Nrf2 Western blotting, primary human astrocytes; assay type: cell-based; conditions: total cell lysates, GAPDH control, FIG. 9
Description: as §1

primary astrocytes = experiment: Gene expression profiling of LPS stimulated primary astrocytes; assay type: cell-based, rat; conditions: LPS 0, 10, 100 ng/ml; DMF 0, 3, 10, 30 μM, FIG. 5
Description: Primary astrocytes were treated with LPS at 0, 10, and 100 ng/ml, as indicated, and also treated with DMF at 0, 3, 10, or 30 μM as indicated. The magnitude of expression of each gene under each condition was scaled from 0 to 1, so that differences in color represent changes in expression of each gene as the conditions varied. The darkest green color represents no detectable expression (0), while the brightest red color represents the highest expression measured for that gene (1). […] The induced expression of many of the markers was suppressed by DMF treatment.
Direct effects of BG00012 on specific astrocytic and microglial cells were tested in vitro using primary rat astrocytes and RAW264.7 macrophage cells.

primary rat astrocytes [3] = experiment: Global gene expression analysis (Affymetrix GeneChip) in astrocytes treated with DMF; assay type: cell-based; conditions: p<10^−7 versus untreated astrocytes, FIG. 10
Description: Global analysis of gene expression in astrocytes treated with DMF was performed using the Affymetrix GeneChip technology. […] The resulting gene list was annotated using the Ingenuity IPA database. […] Specific genes involved in cytoprotection and glutathione metabolism, identified in this assay, include, but are not limited to, Gsta2, Gsta3, Gclc, Ggt1, Txnrd1, Srxn1, Sqstm1, and Nqo1.

primary rat astrocytes [4] = experiment: Quantitative PCR of gene expression in primary cultured astrocytes, with or without LPS; assay type: cell-based
Description: Rat astrocytes from cortex, hippocampus and striatum (Lonza clontech) were cultured as described by manufacturers protocol. Limiting dilutions of DMF in DMSO were added to cultures for 6 or 24 hours and stimulated with E. Coli LPS (Sigma). RNA was prepared using QIAgen Rneasy method. […] It is also apparent from the data that NQO1 is induced at a higher level by exposure to DMF for 24 hrs compared to induction by a 6 hour exposure. Direct effects of BG00012 on specific astrocytic and microglial cells were tested in vitro using primary rat astrocytes and RAW264.7 macrophage cells.

[5] = test system: rat EAE (MOG/IFA immunized Brown Norway rats); experiment: Rat EAE model, clinical score; assay type: in vivo; conditions: FIG. 1A
Description: Female Brown Norway rats (Charles River Laboratories) were immunized intradermally at the base of the tail with MOG 1-125 100 ug/rat in IFA at day 0. Day 3 DMF (BG00012) qd 5, 25, 50, 100, 200 mg/kg delivered orally as a suspension in 0.8% HPMC. N=6 per group. Scoring 0=no disease, 1=tail paralysis, 2=hind limb weakness, 3=hind limb paralysis, 4=hind limb paralysis and forelimb weakness, 5=moribund or dead. Experimental in vivo procedures were performed in accordance with Institutional Animal Committee guidelines crEAE was induced by intradermal MOG/IFA immunization in Brown Norway rats. BG00012 was administered orally at a daily interval beginning three days after immunization. […] For the 100 mg/kg treatment group, average disease score at day 28 was 0.71 (n=6, SD=1.17) compared to 2.29 (n=6, SD=1.29) for the vehicle group.

[6] = test system: human spinal cord astrocytes; experiment: H2O2 challenge of human spinal cord astrocytes: viability, metabolism, ATP; assay type: cell-based; conditions: FIG. 8C
Description: In another experiment, primary cultures of human spinal cord astrocytes were treated for 24 hr with a titration of MMF or DMSO as a diluent control. Following 24 hr incubation with compound, cells were washed 1× with HBSS and challenged with […] H2O2 for two hours, then washed in normal growth media, then incubated for an additional 24 hours.

[7] = test system: human spinal cord astrocytes; experiment: H2O2-induced Ca++ mobilization in human spinal cord astrocytes (Calcium4 dye); assay type: cell-based; conditions: Astrocyte, 24 hr MMF, 50 mM H2O2, FIG. 7C, read-out: EC50, protection against H2O2-induced Ca++ mobilization (non-linear regression)
Description: In another experiment, primary cultures of human spinal cord astrocytes were treated for 24 hr with a titration of MMF or DMSO as a diluent control. Following 24 hr incubation with compound, cells were washed 1× with HBSS and incubated with Calcium4 (Molecular Devices) loading dye. This dye permeates into cells and increases fluorescence upon binding of free intracellular Ca^++. Cells were then challenged with 50 mM H2O2 and monitored for changes in fluorescence. […] FIG. 7C.

[8] = test system: human spinal cord astrocytes; experiment: Glutathione, metabolic activity and viability of cultured human spinal cord astrocytes; assay type: cell-based; conditions: 24 hr MMF titration, FIG. 6C
Description: Primary cultures of human spinal cord astrocytes were treated for 24 hr with a titration of MMF or DMSO as a diluent control. Following 24 hr incubation with compound, cells were washed 1× with growth media and incubated with the cell-permeant substrate monochlorobimane. When bound to glutathione this substrate increases fluorescence. […] FIG. 6A. Similar MMF treated cells were also incubated with the cell permeant substrate resazurin, which increases fluorescence upon reduction to resorufin by cellular redox mechanisms and is used as a measure of cellular metabolic activity (CellTiter-Blue assay). […] FIG. 6B. To ensure the increases in glutathione and metabolic activity were not simply due to cellular proliferation in response to MMF treatment, parallel dishes of cells were incubated with calcein AM. Cellular esterases cleave this molecule to generate a fluorescent metabolite, which provides a measure of cell viability and relative total cell numbers. […] FIG. 6C.

Structure (SMILES) | activated astrocytes in grey matter of spinal cords (GFAP antibody) (rat spinal cords (EAE); 100 mg/kg DMF versus vehicle alone, FIG. 3) | myelin loss during EAE in rat spinal cords (Luxol Fast Blue morphometry) (rat spinal cords (EAE); FIG. 12) | levels of Nrf2 (Western blotting), primary rat astrocytes (Nrf2 [1]) | levels of Nrf2 (Western blotting), primary human astrocytes (Nrf2 [2]) | LPS-induced expression of Ccl20, Ccl3, Ccl4, Cxcl1, Cxcl10, Cxcl2, Cxcl3, Cxcl6, IL1a, II1b, Tnf, Ifit3, Zc3h12a (primary astrocytes) | expression of Nrf2 target genes (incl. glutathione metabolism genes) (primary rat astrocytes [3]) | LPS induced TNF expression (quantitative PCR) (primary rat astrocytes [4]; DMF 24 hours, LPS 0, 10, 30 ng/ml 4 hrs prior to harvest, FIG. 4B) | GFAP expression (quantitative PCR) (primary rat astrocytes [4]; DMF for 6 hrs and 24 hrs, FIG. 4A) | NQO1 expression (quantitative PCR) (primary rat astrocytes [4]; DMF for 6 hrs and 24 hrs, FIG. 4C) | EAE disease ([5]; 200 mg/kg) | EAE symptoms ([5]; various doses (5-200 mg/kg qd oral from day 3)) | cellular ATP levels at the highest concentration of MMF [6] | EC50 [7] [µM] | cell viability and relative total cell numbers (calcein AM) [8]
COC(=O)/C=C/C(=O)OC [DMF, dimethyl fumarate] | fewer activated astrocytes | diminishes myelin loss | increase levels of Nrf2 | increase levels of Nrf2 | strongly suppressed | activates expression of Nrf2 target genes | repressed by DMF in a dose dependent manner | inhibits GFAP expression in a concentration dependent manner | induces NQO1 expression in a concentration dependent manner | completely abrogated disease | reduced EAE symptoms in a dose-dependent manner |  |  | 
COC(=O)/C=C/C(=O)O [MMF, monomethyl fumarate] |  |  |  |  |  |  |  |  |  |  |  | appeared to reduce cellular ATP levels | 5.4 | No substantial concentration-dependent changes
